Reference: ChEMBL document CHEMBL5321216, “Discovery of bipyridine amide derivatives targeting pRXRα-PLK1 interaction for anticancer therapy” (Eur J Med Chem, 2023)
Activity calls are given as the source filed them. No cut-off for these calls is given here.

Experiments:
HepG2 = test: Antiproliferative activity against human HepG2 cells assessed as cell viability rate at 5 uM incubated for 72 hrs by MTT assay relative to control; assay type: functional
[1] = target: T1, Retinoic acid receptor RXR-alpha (Homo sapiens) (UniProt P19793); test: Antagonist activity at RXRalpha (unknown origin) transfected in human HeLa cells assessed as inhibition of CD3254- induced receptor transactivation by measuring remaining luciferase activity at 1 uM incubated for 24 hrs by dual luciferase reporter assay; assay type: cell-based; conditions: filed as antagonist
T1 sequence (whole entry): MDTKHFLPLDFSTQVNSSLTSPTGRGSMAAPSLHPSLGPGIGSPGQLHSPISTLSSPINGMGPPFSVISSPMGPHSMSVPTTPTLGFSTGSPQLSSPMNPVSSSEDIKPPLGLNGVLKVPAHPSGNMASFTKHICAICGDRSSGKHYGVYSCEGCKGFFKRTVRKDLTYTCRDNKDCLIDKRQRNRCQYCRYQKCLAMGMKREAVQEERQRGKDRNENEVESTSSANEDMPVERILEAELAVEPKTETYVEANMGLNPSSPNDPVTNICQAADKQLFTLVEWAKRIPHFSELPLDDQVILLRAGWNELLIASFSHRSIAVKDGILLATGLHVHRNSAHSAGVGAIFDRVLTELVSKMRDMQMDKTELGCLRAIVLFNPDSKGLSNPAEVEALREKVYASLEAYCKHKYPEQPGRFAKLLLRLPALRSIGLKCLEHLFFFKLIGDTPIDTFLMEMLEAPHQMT

MDA-MB-231 [2] = test: Antiproliferative activity against human MDA-MB-231 cells assessed as cell viability rate at 5 uM incubated for 72 hrs by MTT assay relative to control; assay type: functional
A549 [3] = test: Antiproliferative activity against human A549 cells assessed as cell viability rate at 5 uM incubated for 72 hrs by MTT assay relative to control; assay type: functional
[4] = target: T1, Retinoic acid receptor RXR-alpha (Homo sapiens); test: Antagonist activity at RXRalpha (unknown origin) transfected in human HeLa cells assessed as inhibition of CD3254- induced receptor transactivation by measuring remaining luciferase activity at 1 uM incubated for 24 hrs by dual luciferase reporter assay relative to control; assay type: cell-based; conditions: filed as antagonist
MDA-MB-231 [5] = test: Antiproliferative activity against human MDA-MB-231 cells assessed as inhibition of cell proliferation incubated for 72 hrs by MTT assay; assay type: functional, cell-based; conditions: MDA-MB-231, 72 h
[6] = Drug absorption in KM mouse at 25 mg/kg, po measured after 0.5 to 2 hrs; assay type: ADME, organism-based; conditions: in vivo, time 0.5-2 hrs
A549 [7] = test: Induction of apoptosis in human A549 cells assessed as early apoptotic cells at 20 uM incubated for 24 hrs by annexin V-FITC/PI staining based flow cytometry analysis (reference value: 0.78%); assay type: functional
MDA-MB-231 [8] = test: Induction of apoptosis in human MDA-MB-231 cells assessed as late apoptotic cells at 20 uM incubated for 24 hrs by annexin V-FITC/PI staining based flow cytometry analysis (reference value: 5.93%); assay type: functional
[9] = Apparent volume of distribution during terminal phase in Sprague-Dawley rat at 25 mg/kg, ip measured for 48 hrs by LC-MS/MS analysis; assay type: ADME, organism-based; conditions: in vivo, read-out: Vz/F
[10] = Tmax in Sprague-Dawley rat at 25 mg/kg, ip measured for 48 hrs by LC-MS/MS analysis; assay type: ADME, organism-based; conditions: in vivo
[11] = Elimination half life in Sprague-Dawley rat at 25 mg/kg, ip measured for 48 hrs by LC-MS/MS analysis; assay type: ADME, organism-based; conditions: in vivo, read-out: beta t1/2 (converted)
[12] = Cmax in Sprague-Dawley rat at 25 mg/kg, ip measured for 48 hrs by LC-MS/MS analysis; assay type: ADME, organism-based; parameters: time 48 hrs, dose 25 mg/kg, route ip; conditions: in vivo
[13] = AUC (0 to infinity) in Sprague-Dawley rat at 25 mg/kg, ip measured for 48 hrs by LC-MS/MS analysis; assay type: ADME, organism-based; parameters: time 48 hrs, dose 25 mg/kg, route ip; conditions: in vivo
A549 [14] = test: Induction of apoptosis in human A549 cells assessed as late apoptotic cells at 20 uM incubated for 24 hrs by annexin V-FITC/PI staining based flow cytometry analysis (reference value: 5.28%); assay type: functional
MDA-MB-231 [15] = test: Induction of apoptosis in human MDA-MB-231 cells assessed as early apoptotic cells at 20 uM incubated for 24 hrs by annexin V-FITC/PI staining based flow cytometry analysis (reference value: 2.03%); assay type: functional
MDA-MB-231 [16] = test: Induction of apoptosis in human MDA-MB-231 cells assessed as live cells at 20 uM incubated for 24 hrs by annexin V-FITC/PI staining based flow cytometry analysis (reference value: 91.3%); assay type: functional
A549 [17] = test: Induction of apoptosis in human A549 cells assessed as dead cells at 20 uM incubated for 24 hrs by annexin V-FITC/PI staining based flow cytometry analysis (reference value: 0.75%); assay type: functional
MDA-MB-231 [18] = test: Induction of apoptosis in human MDA-MB-231 cells assessed as dead cells at 20 uM incubated for 24 hrs by annexin V-FITC/PI staining based flow cytometry analysis (reference value: 0.69%); assay type: functional
A549 [19] = test: Induction of apoptosis in human A549 cells assessed as live cells at 20 uM incubated for 24 hrs by annexin V-FITC/PI staining based flow cytometry analysis (reference value: 93.2%); assay type: functional
[20] = Apparent clearance during terminal phase in Sprague-Dawley rat at 25 mg/kg, ip measured for 48 hrs by LC-MS/MS analysis; assay type: ADME, organism-based; conditions: in vivo, read-out: CLz/F (converted)
[21] = Drug absorption in KM mouse at 25 mg/kg, ip measured after 0.5 to 2 hrs; assay type: ADME, organism-based; conditions: in vivo, time 0.5-2 hrs

Row | SMILES | Activity (HepG2) | inhibition [1] | Activity (MDA-MB-231 [2]) | Activity (A549 [3]) | IC50 (MDA-MB-231 [5]) | other results
1 | Cc1ccc(CC(=O)Nc2ccc(-c3ccnc(N4CCC(CO)CC4)c3)cn2)cc1 | 51.27% | Active | 54.12% | 72.28% |  | 
2 | Cc1cccc(/C=C/C(=O)Nc2ccc(-c3ccnc(N4CCC(CO)CC4)c3)cn2)c1 | 38.09% |  | 38.51% | 41% |  | 
3 | Cc1cccc(CC(=O)Nc2ccc(-c3ccnc(N4CCC(CO)CC4)c3)cn2)c1 | 29.6% |  | 32.19% | 63.99% | 2020 nM | Activity [4]: < 50%
4 | COc1ccc(CC(=O)N/N=C/c2c(O)ccc3ccccc23)cc1 | 48.65% |  | 51.93% | 82.65% | 6880 nM | Drug absorption [6]: Not Active; Activity (A549 [7]): 26.1%; Activity (MDA-MB-231 [8]): 12.7%; Vd/F [9]: 11.3 L/kg; Tmax [10]: 2.67 h; half-life [11]: 2.13 h; Cmax [12]: 1060 ng/mL; AUC(0-inf) [13]: 7040 ng·h/mL; Activity (A549 [14]): 32.7%; Activity (MDA-MB-231 [15]): 23.5%; Activity (MDA-MB-231 [16]): 62.5%; Activity (A549 [17]): 1.15%; Activity (MDA-MB-231 [18]): 1.22%; Activity (A549 [19]): 40.1%; CL/F [20]: 61.2 mL/min/kg; Drug absorption [21]: Active
5 | O=C(Cc1cccc(F)c1)Nc1ccc(-c2ccnc(N3CCC(CO)CC3)c2)cn1 | 65.95% |  | 36.36% | 58.17% | 3500 nM | Activity [4]: < 50%
6 | CN1CCN(c2cc(-c3ccc(NC(=O)Cc4cccc(F)c4)nc3)ccn2)CC1 | 84.3% |  | 87.66% | 113.37% |  | 
7 | CC1CCN(c2cc(-c3ccc(NC(=O)Cc4cccc(F)c4)nc3)ccn2)CC1 | 59.64% | Active | 44.58% | 64.69% | 1460 nM | 
8 | Cc1ccc(CC(=O)Nc2ccc(-c3ccnc(N4CCN(C)CC4)c3)cn2)cc1 | 98.32% | Active | 85.44% | 103.32% |  | 
9 | COc1cccc(CC(=O)Nc2cc(-c3ccnc(N4CCC(C)CC4)c3)ccn2)c1 | 110.22% | Active | 83.56% | 114.18% |  | 
10 | O=C(CCc1ccccc1)Nc1cc(-c2ccnc(N3CCC(CO)CC3)c2)ccn1 | 37.04% | Active | 25.7% | 62.19% | 879 nM | 
11 | Cc1cccc(CC(=O)Nc2cc(-c3ccnc(N4CCC(CO)CC4)c3)ccn2)c1 | 60.73% | Active | 46.82% | 73.92% |  | 
12 | COc1cccc(CC(=O)Nc2ccc(-c3ccnc(N4CCC(CO)CC4)c3)cn2)c1 | 27.89% |  | 34.49% | 77.14% | 7360 nM | Activity [4]: < 50%
13 | Cc1ccc(CC(=O)Nc2ccc(-c3ccnc(N(C)CCO)c3)cn2)cc1 | 87.52% |  | 96.17% | 100.97% |  | 
14 | Cc1cccc(/C=C/C(=O)Nc2cc(-c3ccnc(N4CCC(CO)CC4)c3)ccn2)c1 | 27.5% | Active | 34.47% | 53.6% | 2610 nM | 
15 | CN(CCO)c1cc(-c2ccc(NC(=O)Cc3cccc(F)c3)nc2)ccn1 | 91.54% |  | 101.43% | 92.91% |  | 
16 | COc1cccc(CC(=O)Nc2cc(-c3ccnc(N4CCC(CO)CC4)c3)ccn2)c1 | 92.25% | Active | 72.35% | 94.17% |  | 
17 | Cc1ccc(CC(=O)Nc2ccc(-c3ccnc(N4CCC(C)CC4)c3)cn2)cc1 | 88.24% | Active | 76.9% | 91.24% |  | 
18 | O=C(/C=C/c1ccccc1)Nc1ccc(-c2ccnc(N3CCC(CO)CC3)c2)cn1 | 31.76% |  | 40.55% | 52.67% |  | 
19 | O=C(/C=C/c1cccc(F)c1)Nc1ccc(-c2ccnc(N3CCC(CO)CC3)c2)cn1 | 31.25% |  | 51.3% | 42.31% |  | 
20 | Cc1cccc(CC(=O)Nc2ccc(-c3ccnc(N4CCC(C)CC4)c3)cn2)c1 | 42.4% |  | 44.06% | 75.58% | 1480 nM | Activity [4]: < 50%
21 | CC1CCN(c2cc(-c3ccnc(NC(=O)Cc4cccc(F)c4)c3)ccn2)CC1 | 93.8% | Active | 91.09% | 103.8% |  | 
22 | COc1cccc(CC(=O)Nc2ccc(-c3ccnc(N(C)CCO)c3)cn2)c1 | 86.14% |  | 96.96% | 93.45% |  | 
23 | COc1cccc(CC(=O)Nc2ccc(-c3ccnc(N4CCN(C)CC4)c3)cn2)c1 | 85.3% |  | 99.26% | 103.91% |  | 
24 | Cc1cccc(CC(=O)Nc2cc(-c3ccnc(N4CCC(C)CC4)c3)ccn2)c1 | 106.32% | Active | 93.87% | 108.84% |  | 
25 | O=C(/C=C/c1cccc(F)c1)Nc1cc(-c2ccnc(N3CCC(CO)CC3)c2)ccn1 | 46.35% | Active | 31.06% | 55.98% | 44 nM | 
26 | Cc1cccc(CC(=O)Nc2ccc(-c3ccnc(N4CCN(C)CC4)c3)cn2)c1 | 86.83% |  | 112.17% | 126.23% |  | Activity [4]: < 50%
27 | O=C(Cc1cccc(F)c1)Nc1cc(-c2ccnc(N3CCC(CO)CC3)c2)ccn1 | 88.95% | Active | 82.84% | 98.62% |  | 
28 | COc1cccc(CC(=O)Nc2ccc(-c3ccnc(N4CCC(C)CC4)c3)cn2)c1 | 55.19% | Active | 47.74% | 80.24% | 3190 nM | 
29 | Cc1cccc(CC(=O)Nc2ccc(-c3ccnc(N(C)CCO)c3)cn2)c1 | 89.85% |  | 51.81% | 93.2% |  | 
